Assay results published in patent US20210038559A1, “CANNABINOIDS AND DERIVATIVES FOR PROMOTING IMMUNOGENICITY OF TUMOR AND INFECTED CELLS” (priority 2018, published 2021).
Where a name gives a salt, the structure may show the parent alone. Read-outs that look alike come from different tables or passages of the source.

B1: Interferon-γ: a natural cytokine known to stimulate MHC class I expression in many mammalian cells (protein, UniProt P01579 24-161, looked up)
Interferon gamma: QDPYVKEAENLKKYFNAGHSDVADNGTLFLGILKNWKEESDRKIMQSQIVSFYFKLFKNFKDDQSIQKSVETIKEDMNVKFFNSNKKKRDDFEKLTNYSVTDLNVQRKAIHELIQVMAELSPAAKTGKRKRSQMLFRG

Legend:
[1] = tested on: MHC-I expression on COLO 205 cells; assay: Phytocannabinoid MHC-I induction on COLO 205 cells, 0-100 μM, 48 hours; details: for MHC-I expression induction: COLO 205, endogenous cannabinoids; for Fold Induction: MHC-I expression on COLO 205 cells, relative to control cells treated only with buffer
Protocol: FIG. 4. Cell surface MHC class I expression was measured by flow cytometry (MFI).
Phytocannabinoids were tested for MHC-I-inducing activity on COLO 205 cells. Each cannabinoid was tested at a concentration range of 0-100 μM. […] “ND” indicates not determined.

[2] = tested on: MHC-I expression by COLO 205 cells; assay: cells; format: cell-based, human; details: for fold induction at 35 µM: Homo sapiens, COLO 205, 48 h, read-out: Induction Fold
Protocol: A panel of synthetic cannabinoids (Cayman Chemical, #9002891) was tested for MHC class I-inducing capability in COLO 205 cells as described above. COLO 205 cells were treated with the compounds at a concentration of 35 μM and evaluated for cell surface MHC class I expression after 48 hours. Cells were harvested, stained with MHC-I mAb W6/32 (Thermo Fisher). MHC-I expression was determined by flow cytometry.

[3] = tested on: MHC class I expression on COLO 205 cells; assay: MHC class I expression on COLO 205 cells, 24 hours, flow cytometry (W6/32)
Protocol: FIG. 2A-2F. […] Cells were treated for 24 hours and cell surface MHC class I expression was measured by flow cytometry.
Cannabigerol was also tested for its capacity to induce MHC class I expression in a human colorectal carcinoma cell line, COLO 205. The cells were treated with either 25 μM or 50 μM cannabigerol for 24 hours. Fluorophor (Alexa Fluor 488)-conjugated W6/32 antibody (Thermo Fisher) was used in a flow cytometry assay to quantitate MHC class I expression. […] Cannabigerol is only one of many cannabinoid-like molecules with potential biopharmaceutical activity. […] COLO 205 cells were treated with up to 40 μM of the cannabinoids 1-5 presented in Tables 1 and 2 and evaluated for cell surface MHC class I expression as described above for cannabigerol.

[4] = MHC-I expression, COLO 205 cells, compounds at 35 μM, 48 hours, flow cytometry (W6/32)
[5] = induction of MHC-I expression on COLO 205 cells, 0-100 μM, 48 hours

Molecule | fold induction at 35 µM [2, 4] | Induction Fold [2] [Fold] | other results
CCCCC/C=C\C/C=C\C/C=C\C/C=C\CCCC(=O)NCCO [AEA, N-arachidonoylethanolamine, reference compound] | – | – | MHC-I expression induction [1]: do not induce MHC-I expression
CCCCC/C=C\C/C=C\C/C=C\C/C=C\CCCC(=O)OC(CO)CO [Example 2-AG, 2-Arachidonoylglycerol, reference compound] | – | – | MHC-I expression induction [1]: do not induce MHC-I expression
CCCC(F)Cn1cc(C(=O)c2ccc(C)c3ccccc23)c2ccccc21 (stereo not shown) [Example 359, (1-(2-fluoropentyl)-1H-indol-3-yl)(4-methylnaphthalen-1-yl)methanone] | 1 | – | –
CCCCCCC(C)(C)c1cc(O)c2c(c1)OC(C)(C)[C@H]1CC=C(CO)C[C@H]21 [Example 360, 3-(1,1-dimethylheptyl)-6aS,7,10,10aS-tetrahydro-1-hydroxy-6,6-dimethyl-6H-dibenzo[b,d]pyran-9-methanol] | 0.96 | – | –
CCCC(C)n1cc(C(=O)c2ccc3ccccc3c2)c2ccccc21 (stereo not shown) [Example 362, naphthalen-2-yl(1-(pentan-2-yl)-1H-indol-3-yl)methanone] | 0.95 | – | –
CCOc1ccc(Cc2nc3cc(C(=O)N(CC)CC)ccc3n2CC2CCCCC2)cc1 [Example 363, 1-(cyclohexylmethyl)-2-[(4-ethoxyphenyl)methyl]-N,N-diethyl-1H-benzimidazole-5-carboxamide] | 0.92 | – | –
CCCCCn1cc(C(=O)NC23CC4CC(CC(C4)C2)C3)c(=O)c2cc(C(C)C)ccc21 [Example 364, 1,4-dihydro-6-(1-methylethyl)-4-oxo-1-pentyl-N-tricyclo[3.3.1.1^3, 7]dec-1-yl-3-quinolinecarboxamide] | 0.89 | – | –
CCCCCCC(C)(C)c1ccc([C@H]2C[C@@H](O)CC[C@@H]2CCCO)c(O)c1 [Example 365, 2-((1S,2S,5S)-5-hydroxy-2-(3-hydroxypropyl)cyclohexyl)-5-(2-methyloctan-2-yl)phenol] | 0.89 | – | –
CCCCCn1cc(-c2nc(CN(CC)CC)cs2)c2ccccc21 [Example 366] | – | – | Induction Fold [2, 4]: 0.89 Fold
CC1=CC[C@@H]2[C@@H](C1)c1c(O)cc(C(C)(C)c3ccccc3)cc1OC2(C)C [Example 367, 6aR,7,10,10aR-tetrahydro-6,6,9-trimethyl-3-(1-methyl-1-phenylethyl)-6H-dibenzo[b,d]pyran-1-ol] | – | – | Induction Fold [2, 4]: 0.87 Fold
CN1CCCCC1Cn1cc(C(=O)C2C(C)(C)C2(C)C)c2ccccc21 (stereo not shown) [Example 368, [1-[(1-methyl-2-piperidinyl)methyl]-1H-indol-3-yl](2,2,3,3-tetramethylcyclopropyl)-methanone] | – | – | fold induction at 35 µM [2]: 0.85
CCCCCn1cc(-c2nc(CN(CCOC)C(C)C)cs2)c2ccccc21 [Example 369, N-(2-methoxyethyl)-N-(1-methylethyl)-2-(1-pentyl-1H-indol-3-yl)-4-thiazolemethanamine, monohydrochloride] | 0.85 | – | –
CCCCn1cc(C(=O)c2ccc(OC)c3ccccc23)c2ccccc21 [Example 370, (1-butyl-1H-indol-3-yl)(4-methoxy-1-naphthalenyl)-methanone] | 0.82 | – | –
CCCCCCC(C)(C)c1ccc([C@H]2CCC[C@@H](O)C2)c(O)c1 [Example 371, 2[(1S,3R)-3-hydroxycyclohexyl]-5-(2-methyloctan-2-yl)phenol] | 0.78 | – | –
CCCCCn1c(C)c(C(=O)c2ccc(OC)c3ccccc23)c2ccccc21 [Example 372, (4-methoxy-1-naphthalenyl)(2-methyl-1-pentyl-1H-indol-3-yl)-methanone] | 0.6 | – | –
O=C(Nc1cccc2ccccc12)c1cn(CCCCCF)c2ccncc12 [Example 373, 1-(5-fluoropentyl)-N-(naphthalen-1-yl)-1H-pyrrolo[3,2-c]pyridine-3-carboxamide] | 0.49 | – | –
CS(=O)(=O)O.Cc1c(C(=O)c2cccc3ccccc23)c2cccc3c2n1C(CN1CCOCC1)CO3 (stereo not shown) [Example 376, [2,3-dihydro-5-methyl-3-(4-morpholinylmethyl)pyrrolo[1,2,3-de]-1,4-benzoxazin-6-yl]-1-naphthalenyl-methanone, methanesulfonate] | – | 0.32 | –
C=C(C)[C@@H]1CCC(C)=C[C@H]1C1=C(O)C(=O)C(CCCCC)=CC1=O [Example 377, 3-hydroxy-2-[(1R,6R)-3-methyl-6-(1-methylethenyl)-2-cyclohexen-1-yl]-5-pentyl-2,5-cyclohexadiene-1,4-dione] | 0.3 | – | –
CCCCCCC(C)(C)c1cc(O)c2c(c1)OC(C)(C)[C@@H]1CC=C(CO)C[C@@H]21 [Example 378, 3-(1,1′-dimethylheptyl)-6aR,7,10,10aR-tetrahydro-1-hydroxy-6,6-dimethyl-6H-dibenzo[b,d]pyran-9-methanol] | 0.21 | – | –

Molecule | fold induction at 35 µM [2, 4] | Induction Fold [2] [Fold] | other results
CS(=O)(=O)O.Cc1c(C(=O)c2cccc3ccccc23)c2cccc3c2n1[C@H](CN1CCOCC1)CO3 [Example 379, [(3R)-2,3-dihydro-5-methyl-3-(4-morpholinylmethyl)pyrrolo[1,2,3-de]-1,4-benzoxazin-6-yl]-1-naphthalenyl-methanone, methanesulfonate] | – | 0.21 | –
CCCc1cc(O)c2c(c1)OC(C)(CCC=C(C)C)C=C2 (stereo not shown) [Example 381, 2-methyl-2-(4-methylpent-3-enyl)-7-propylchromen-5-ol] | – | – | EC50 ([1]; Homo sapiens, COLO 205, 48 h): 32 µM; Fold Induction ([1]; 0-100 μM, 48 hours): 3.3 Fold
CCCCCc1cc2c3c(c1)OC(C)(C)C1CCC(C)(CC31)O2 (stereo not drawn) [Example 382, (6aα,9β,10aα)-6a,7,8,9,10,10a-hexahydro-6,6,9-trimethyl-3-pentyl-1,9-epoxy-6H-dibenzo[b,d]pyran] | – | – | Fold Induction ([1]; 0-100 μM, 48 hours): 1.3 Fold
CCCCCc1cc(O)c2c(c1)OC(C)(C)[C@@H]1CC=C(C)C[C@@H]21 [Example 383, 6aR,7,10,10aR-tetrahydro-6,6,9-trimethyl-3-pentyl-6H-dibenzo[b,d]pyran-1-ol] | – | – | Fold Induction ([1]; 0-100 μM, 48 hours): 4.1 Fold; EC50 [1, 5]: 27 µM
CCCCCc1cc(O)c2c(c1)OC(C)(C)[C@@H]1CCC(C)=C[C@@H]21 [Example 384, 6aR,7,8,10aR-tetrahydro-6,6,9-trimethyl-3-pentyl-6H-dibenzo[b,d]pyran-1-ol] | – | – | Fold Induction ([1]; 0-100 μM, 48 hours): 6.1 Fold; EC50 [1, 5]: 30 µM
CCCc1cc(O)c2c(c1)OC(C)(C)c1ccc(C)cc1-2 [Example 385, 6,6,9-trimethyl-3-propyl-6H-dibenzo[b,d]pyran-1-ol] | – | – | EC50 ([1]; Homo sapiens, COLO 205, 48 h): 20 µM; Fold Induction ([1]; 0-100 μM, 48 hours): 3.9 Fold
(1-butyl-6-methoxy-1H-indol-3-yl)-1-naphthalenyl-methanone [Example 107] | – | 2.39 | –
(1-ethyl-1H-indol-3-yl)-1-naphthalenyl-methanone [Example 272] | – | 1.53 | –
(1-heptyl-5-phenyl-1H-pyrrol-3-yl)-1-naphthalenyl-methanone [Example 212] | – | 1.83 | –
(1-hexyl-1H-indol-3-yl)-1-naphthalenyl-methanone [Example 140] | – | 2.19 | –
(1-hexyl-1H-pyrrol-3-yl)-1-naphthalenyl-methanone [Example 72] | – | 2.68 | –
(1-hexyl-5-phenyl-1H-pyrrol-3-yl)-1-naphthalenyl-methanone [Example 82] | – | 2.54 | –
(2-ethyl-1-pentyl-1H-indol-3-yl)-1-naphthalenyl-methanone [Example 154] | – | 2.11 | –
[1-(5-fluoropentyl)-6-nitro-1H-indol-3-yl]-1-naphthalenyl-methanone [Example 280] | – | 1.49 | –
[2-methyl-1-(1-methylhexyl)-1H-indol-3-yl]-1-naphthalenyl-methanone [Example 137] | – | 2.22 | –
[5-(2-chlorophenyl)-1-pentyl-1H-pyrrol-3-yl]-1-naphthalenyl-methanone [Example 63] | – | 2.77 | –
[5-(3-fluorophenyl)-1-pentyl-1H-pyrrol-3-yl]-1-naphthalenyl-methanone [Example 109] | – | 2.37 | –
B1 | – | – | Fold Induction ([3]; COLO 205, 0.004 ng/mL): 0.98; Fold Induction ([3]; COLO 205, 0.040 ng/mL): 2.07; Fold Induction ([3]; COLO 205, 1.000 ng/mL): 3.99
